The values below come from PubChem BioAssay (NCI).

Structures are written as SMILES.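 Values below derive from 48-hour exposures of cells grown in 96-well plates, with endpoints linearly interpolated between the two concentrations bracketing the appropriate inhibition level. The concentration for 50% growth inhibition is given as GI50. Definition used: TGI = concentration required for complete inhibition of growth.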

Holding throughout (test): growth of human tumour cells (NCI), 48 h
In experiment [1] the test system is ACHN renal.
The test system of experiment [2] is EKVX NSCLC.
Experiment [3] has as its system IGROV1 ovarian.
The test system of experiment [4] is KM20L2 colon.
The subject of experiment [5] is LXFL 529 NSCLC.
The test system of experiment [6] is MOLT-4 leukemia.
Experiment [7] deals with NCI-H522 lung.
The test system of experiment [8] is RPMI-8226 leukemia.
Experiment [9] concerns MDA-MB-231 breast.
Experiment [10] relates to MDA-MB-435.

As for `CC[O-].CC[O-].O=C1C=C([O-])C(=O)c2ccccc21.O=C1C=C([O-])C(=O)c2ccccc21.[Ti+4]`, the GI50 in [1] is 71 µM; in experiment [2], greater than 100000 nM; in experiment [3], greater than 100 µM; in [4], 84.7 µM; in experiment [5] it was 83.3 µM; in experiment [6] it was greater than 100 µM. The figures for the GI50 in experiment [7] and in experiment [8] were greater than 40.1 µM and 8.08 µM, respectively. The TGI in experiment [1], in experiment [2], in experiment [3], in [4], in experiment [5] and in experiment [6] was greater than 100 µM throughout. For the same compound, the TGI in [7] and in experiment [8] was greater than 100 µM each time.

With `CCN(N=O)C1C2(CCCC2)NC(=O)C12CCCC2` (stereo not drawn), the TGI in experiment [1], in experiment [2], in experiment [3], in experiment [4], in [5] and in [6] was greater than 100 µM in each case. In experiment [8], the TGI is greater than 100 µM.

For the compound `COc1ccc(OC(=O)N2C/C(=C\c3ccccc3)C(=O)/C(=C/c3ccccc3)C2)cc1`, the TGI in experiment [1] is 14.4 µM; in [2] it was 58.3 µM; in [3], 16.3 µM; in experiment [4], 17 µM; in experiment [5], 6.92 µM; in [9], 7830 nM. Also, the TGI in experiment [6] came out at 8.06 µM; in experiment [7] it was 5.23 µM; in experiment [8], 0.172 µM.

Regarding `Cc1[nH]c(=O)n2c(C)nnc2c1C(=O)O`, the TGI in experiment [1], in experiment [2], in experiment [3], in [5], in experiment [6] and in [7] was greater than 100 µM in each case. In [8], this compound yielded a TGI greater than 100 µM.

Take `NNC(=O)/C(NC(=O)c1ccccc1)=C(\N)c1cccc([N+](=O)[O-])c1`: the TGI in [1], in [2], in experiment [3], in [5], in experiment [6] and in experiment [7] was greater than 100 µM throughout. Moreover, the TGI in experiment [8] was greater than 100 µM.

Take `OC1(C(Sc2ccccc2)Sc2ccccc2)CCCCCC1`: the TGI in experiment [1] was 64.5 µM; in [2] it was 63.5 µM; in [4], 9.27 µM; in [6], greater than 100 µM; in experiment [7] it was 40.7 µM; in [8], 52.4 µM.

With `CC(=O)OC(C(=O)[O][Ge]([CH3])([CH3])[CH3])c1ccccc1` (stereo not drawn), the GI50 was greater than 100 µM in experiment [1]; greater than 100000 nM in experiment [2]; greater than 100 µM in [3]; greater than 100 µM in experiment [4]; greater than 100 µM in [5]; greater than 100 µM in [7]. In addition, the TGI in [1], in experiment [2], in [3], in experiment [4], in [5] and in [7] was greater than 100 µM throughout.

Turning to `CC1=C2CC[C@@]3(C)C(=CCC3O)C2(C)CCC1=O` (stereo partly drawn), the TGI in experiment [1], in experiment [2], in experiment [3], in [4], in [5] and in experiment [6] was greater than 100 µM throughout. In addition, the TGI in experiment [7] and in [8] was greater than 100 µM in each case.

Take `CCOC(=O)CCc1c(C)c2c(OC)cc(OC)cc2oc1=O`: the TGI in [1], in experiment [2], in [4], in [5] and in experiment [7] was greater than 100 µM each time.

Take `CC(=O)Oc1ccc2c(=O)c(C(C)=O)coc2c1`: the TGI in [1], in [2], in experiment [3], in experiment [4], in experiment [5] and in experiment [6] was greater than 100 µM each time. The TGI in experiment [7] and in experiment [8] was greater than 100 µM throughout.

Consider `CC(=O)OC1C(O)C(C)OC(OC2C(OC(=O)C3CCC4C(C3)OC3(CC(OC(=O)/C=C/c5ccccc5)C(C)CO3)C43CO3)OC(C)C(O)C2OC(C)=O)C1O` (stereo not drawn), for which the TGI in experiment [1] worked out at 0.648 µM; in experiment [2], 0.074 µM; in experiment [3], 0.0922 µM; in experiment [4] it was 0.21 µM; in experiment [9] it was 101 nM; in [10], 6.49 nM. Moreover, the TGI in experiment [6] amounted to 0.032 µM; in experiment [7], 0.0156 µM; in [8], 0.0945 µM.

On to `OC1CC(O)O[C@H](c2ccccc2)C1` (stereo partly drawn), for which the TGI in experiment [1], in experiment [2], in experiment [3], in [4], in experiment [5] and in [6] was greater than 100 µM in each case. This compound returned a TGI in experiment [8] greater than 100 µM.

`CS(=O)(=O)Nc1cc(-c2ccc3ncc(C#N)c(Nc4ccc(F)c(Cl)c4)c3c2)cnc1Cl`: the GI50 in [1] was 0.304 µM; in [2], 275 nM; in experiment [3], 0.0609 µM; in [9], 0.237 µM; in experiment [10], 0.22 µM; in experiment [6] it was 0.0783 µM. The figures for the GI50 in experiment [7] and in experiment [8] were 0.113 µM and 0.0833 µM, respectively. Moreover, the TGI in experiment [1] is greater than 100 µM; in experiment [2], 3.29 µM; in [3] it was 0.372 µM; in experiment [9] it was 786 nM; in experiment [10] it was 1850 nM; in experiment [6], 0.487 µM. Moreover, the TGI in [7] was determined as 1.46 µM; in experiment [8], 0.469 µM.

Regarding `N#CC1=C(N)N=C(N2CCOCC2)C(C#N)C12Nc1ccccc1S2` (stereo not drawn), the GI50 is 21.8 µM in experiment [1]; 1700 nM in experiment [2]; 67.3 µM in [3]; 26.7 µM in experiment [9]; 22.9 µM in experiment [10]; 23.4 µM in experiment [6]. Further, the GI50 in experiment [7] was 17.6 µM; in [8] it was 16 µM. For the same compound, the TGI is 76 µM in experiment [1]; 15.6 µM in [2]; greater than 100 µM in [3]; greater than 100000 nM in experiment [9]; 61100 nM in experiment [10]; greater than 100 µM in experiment [6]. Besides, the values for the TGI in experiment [7] and in experiment [8] were 51.5 µM and 88.5 µM, respectively.
